According to patent US20040009464A1, “Methods for identifying compounds for inhibition of neoplastic lesions, and pharmacetical compositions containing such compounds” (priority 1998, published 2004):
Structures can show the parent of a compound that is named as a salt. Where two headings read alike, the source gives them in different places.

Columns and labels:
[1] = test system: MDA-MB-231; test: Growth inhibition, neutral red assay, MDA-MB-231; type: cell-based, human; conditions: free base, five days
Method: (§1) Compound I's activity is not confined to activity against colon cancer cell lines or animal models of colon cancer. It has a broad range of anti-neoplastic effects in various neoplastic cell lines. Various types of human cancer cell lines were propagated under sterile conditions in RPMI 1640 medium with 10% fetal bovine serum, […] L-glutamine and sodium bicarbonate. To determine growth inhibitory effects of Compound I, cells were seeded in 96-well plates at a density of 1000 cells per well. Twenty-four hours after plating, the cells were dosed with various concentrations of the free base of Compound I solubilized in DMSO (final concentration 0.1%). The effect of the drug on tumor cell growth was determined using the neutral red cytotoxicity assay following five days of continuous treatment. Neutral red is a dye that is selectively taken up by viable cells by an ATP-dependent transport mechanism.

[2] = Seven-day dose-range finding study in rats; type: in vivo; conditions: seven days
[3] = test system: NCI-H322M; test: Growth inhibition, neutral red assay, NCI-H322M; type: cell-based, human; conditions: free base, five days
Method: as §1

[4] = test system: aberrant crypt foci (AOM-induced carcinogenesis); test: Azoxymethane-induced aberrant crypt foci (ACF) model in rats; type: in vivo, male Fisher 344 rats; conditions: for Mean ACF/colon (+SE): free base, 5 weeks
Method: The growth inhibition IC50 value obtained for Compound I was 0.7 μM in the SW-480 cell line. […] This established rodent model of azoxymethane (“AOM”)-induced carcinogenesis was used to assess the effects of Compound I (free base and salt) on colon cancer development in vivo. ACF are precursors to colonic tumors, and ACF inhibition is predictive of chemo-preventive efficacy.
In the rats in this experiment, ACF initiation was achieved by two consecutive weekly injections of the carcinogen. Compound I was administered one week prior to ACF initiation and for the duration of the experiment. ACFs were scored after 5 weeks of treatment. Compound I was administered orally to male Fisher 344 rats in the rat chow. Daily food consumption (mg/kg body weight) varied over the course of the study, and therefore Compound I dose was expressed a grams per kg of diet to provide a basis of comparison between doses. […] The experimental groups gained less weight than the controls, which was indicative of bloavailability. However, the weight differences were less than 10% and not considered to affect ACF formation.
The free base of Compound I inhibited ACF formation as measured by a reduction of crypts per colon. With the exception of the low dose group (only 0.5 g/kg diet), the differences between treatment and control groups were substantial, and statistically significant in the case of the 1.0 and 2.0 g/kg diet group.

[5] = test system: PrEC primary prostate epithelial cells derived from normal prostate; test: Histone-associated DNA fragmentation in PrEC cells; type: cell-based; conditions: 50 μM, up to 4 days
Method: (§2) The androgen-sensitive prostate tumor cell line, LNCAP (from ATCC (Rockville, Md.)) was propagated under standard conditions using […] medium containing 5% fetal calve serum and 2 mM glutamine. Primary prostate epithelial cell cultures (PrEC) derived from normal prostate (from Clonetics Inc. (San Diego, Calif.)) were grown under the same conditions as the tumor cell line except a serum-free medium optimized for the growth of such cultures was used (Clonetics Inc). For the experiments, LNCaP or PrEC cells were seeded in 96 well plates at a density of 10,000 cells per well. After 24 hours, the cells were treated with either vehicle (0.1% DMSO) or 50 μM Compound I (freebase) solubilized in DMSO. After various drug treatment times (4, 24, 48, 72, or 99 hours) the cells were lysed and processed for measurement of histone-associated DNA as an indicator of apoptotic cell death (see, Piazza et al., Cancer Research 57: 2452-2459, 1997).
(§3) This is in marked contrast to conventional chemotherapeutics that induce apoptosis or necrosis in rapidly growing normal and neoplastic cells alike.

[6] = 28-day study in rats; type: in vivo
[7] = test system: LNCaP prostate tumor cell line; test: Histone-associated DNA fragmentation in LNCaP cells; type: cell-based; conditions: 50 μM free base, up to 4 days
Method: as §2, §3

[8] = rat, in vivo
[9] = dog, in vivo
[10] = Single, escalating dose human safety study; type: in vivo; conditions: oral
[11] = test system: PC-3; test: Growth inhibition, neutral red assay, PC-3; type: cell-based, human; conditions: free base, five days
Method: as §1

CC1=C(CC(=O)NCc2ccccc2)c2cc(F)ccc2/C1=C\c1ccncc1 [Compound I, (Z)-5-fluoro-2-methyl-(4-pyridylidene)-3-(N-benzyl)indenylacetamide hydrochloride]
GI90 μM MDA-MB-231 [1]: 77.6 µM
toxicity findings ([2]; 50 mg/kg/day): no observable signs of toxicity
toxicity findings ([2]; 500 mg/kg/day): an increase in absolute and relative liver weights in female rats
toxicity findings ([2]; 2000 mg/kg/day): labored breathing and/or abnormal respiratory sounds, decreased weights gains and food consumption in male rats, and increased liver weights in female rats
GI90 μM NCI-H322M [3]: 13.2 µM
Mean ACF/colon (+SE) ([4]; 0.5 g/kg diet): 149 ± 14 ACF/colon
Mean ACF/colon (+SE) ([4]; 1 g/kg diet): 111 ± 9 ACF/colon
Mean ACF/colon (+SE) ([4]; 1.5 g/kg diet): 132 ± 4 ACF/colon
Mean ACF/colon (+SE) ([4]; 2.0 g/kg diet): 107 ± 15 ACF/colon
body weight difference versus controls ([4]; rats, compound in chow): less than 10%
DNA fragmentation [5]: did not affect DNA fragmentation
organ weights ([6]; 28 days, 2000 mg/kg/day): statistically significant increase in liver weights
clinical observations ([6]; 28 days, 50, 500 and 2000 mg/kg/day): no abnormal clinical observations
histone-associated fragmented DNA [7]: significant increase in fragmented DNA
toxicity findings ([8]; ip, 1000 mg/kg): reduced body weight gain, with mesenteric adhesions seen in some animals
body weight gain ([8]; po, 4000 mg/kg): body weight gains were slightly reduced
signs of toxicity ([9]; 1000 mg/kg): no signs of toxicity
drug-related effects ([9]; 1000 mg/kg/day): At no time in either dosing phase were any obvious signs of drug-related effects observed
side effects [10]: no significant side effects at any dose
GI90 μM PC-3 [11]: 82.5 µM
